Laboratory results from patent US9284325B2, “Spectinamides as anti-tuberculosis agents” (UNIVERSITY OF TENNESSEE RESEARCH FOUNDATION, priority 2009, dated 2016).
Counter-ions that a name gives are not always drawn.

Tested on: M. tuberculosis drug-resistant strains and mutants
Format: cell-based, Mycobacterium tuberculosis

With CN[C@@H]1[C@H](O)[C@H](NC)C2O[C@]3(O)C(OC2[C@H]1O)O[C@H](C)C[C@H]3NC(=O)Cc1ccccn1 (stereo partly drawn) [Compound 1329, 3′-Dihydro-3′-deoxy-4(R)-(pyridin-2yl)acetylamino spectinomycin Dihydrochloride] the “cross resistance with first-line TB drugs isoniazid, rifampicin and ethambutol” value was “no cross resistance”, the “susceptibility of spontaneous streptomycin mutants incl. ATCC 35820” value was “highly susceptible” and the “Activity (MIC) of 1329 compared to streptomycin” value (Dihydrochloride) was >200.
